Measured values taken from ChEMBL document CHEMBL4414631 (J Med Chem, 2019).

Columns and labels:
[1] = target: Phosphatidylinositol 4,5-bisphosphate 3-kinase catalytic subunit beta isoform (Homo sapiens, UniProt P42338); assay: Inhibition of PI3Kbeta (unknown origin) using biotin-PIP3 as substrate preincubated for 15 mins followed by substrate addition and measured after 60 mins by fluorescence polarization assay
[2] = target: Phosphatidylinositol 4,5-bisphosphate 3-kinase catalytic subunit gamma isoform (Homo sapiens, UniProt P48736)
Sequence of Phosphatidylinositol 4,5-bisphosphate 3-kinase catalytic subunit gamma isoform (P48736 whole entry, canonical isoform): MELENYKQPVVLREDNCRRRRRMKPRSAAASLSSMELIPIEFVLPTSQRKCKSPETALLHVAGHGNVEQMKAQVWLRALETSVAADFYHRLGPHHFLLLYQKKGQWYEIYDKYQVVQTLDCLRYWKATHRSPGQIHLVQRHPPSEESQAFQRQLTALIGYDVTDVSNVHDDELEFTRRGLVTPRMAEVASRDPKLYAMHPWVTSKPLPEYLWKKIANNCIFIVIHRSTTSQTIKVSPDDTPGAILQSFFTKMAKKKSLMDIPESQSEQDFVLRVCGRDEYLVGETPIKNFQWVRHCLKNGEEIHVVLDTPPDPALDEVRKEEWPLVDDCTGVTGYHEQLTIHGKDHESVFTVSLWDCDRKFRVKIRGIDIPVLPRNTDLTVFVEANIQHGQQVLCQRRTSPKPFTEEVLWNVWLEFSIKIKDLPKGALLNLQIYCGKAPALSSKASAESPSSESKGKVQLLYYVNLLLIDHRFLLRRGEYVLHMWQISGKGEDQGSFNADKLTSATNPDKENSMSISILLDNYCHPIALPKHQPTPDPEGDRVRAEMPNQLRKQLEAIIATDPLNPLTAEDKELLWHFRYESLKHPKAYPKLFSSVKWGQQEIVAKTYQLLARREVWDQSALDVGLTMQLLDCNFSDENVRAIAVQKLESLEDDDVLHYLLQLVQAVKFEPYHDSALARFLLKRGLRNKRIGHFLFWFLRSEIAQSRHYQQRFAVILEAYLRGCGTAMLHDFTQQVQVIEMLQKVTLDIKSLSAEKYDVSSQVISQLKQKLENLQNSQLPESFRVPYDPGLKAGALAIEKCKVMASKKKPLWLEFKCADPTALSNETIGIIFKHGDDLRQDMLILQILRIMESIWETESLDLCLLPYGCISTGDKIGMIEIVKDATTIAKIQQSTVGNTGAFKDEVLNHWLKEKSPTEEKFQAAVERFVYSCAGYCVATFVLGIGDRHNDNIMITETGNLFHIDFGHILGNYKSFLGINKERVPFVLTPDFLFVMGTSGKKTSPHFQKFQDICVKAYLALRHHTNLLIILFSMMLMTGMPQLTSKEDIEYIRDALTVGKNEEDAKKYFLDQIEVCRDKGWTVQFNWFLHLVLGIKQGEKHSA
Description: Inhibition of PI3Kgamma (unknown origin) using biotin-PIP3 as substrate preincubated for 15 mins followed by substrate addition and measured after 60 mins by fluorescence polarization assay

[3] = Lipophilicity, logD of compound at pH 7.4 by HPLC-MS analysis; details: buffer
[4] = target: Phosphatidylinositol 4,5-bisphosphate 3-kinase catalytic subunit alpha isoform (Homo sapiens, UniProt P42336)
Sequence of Phosphatidylinositol 4,5-bisphosphate 3-kinase catalytic subunit alpha isoform (P42336 whole entry, canonical isoform): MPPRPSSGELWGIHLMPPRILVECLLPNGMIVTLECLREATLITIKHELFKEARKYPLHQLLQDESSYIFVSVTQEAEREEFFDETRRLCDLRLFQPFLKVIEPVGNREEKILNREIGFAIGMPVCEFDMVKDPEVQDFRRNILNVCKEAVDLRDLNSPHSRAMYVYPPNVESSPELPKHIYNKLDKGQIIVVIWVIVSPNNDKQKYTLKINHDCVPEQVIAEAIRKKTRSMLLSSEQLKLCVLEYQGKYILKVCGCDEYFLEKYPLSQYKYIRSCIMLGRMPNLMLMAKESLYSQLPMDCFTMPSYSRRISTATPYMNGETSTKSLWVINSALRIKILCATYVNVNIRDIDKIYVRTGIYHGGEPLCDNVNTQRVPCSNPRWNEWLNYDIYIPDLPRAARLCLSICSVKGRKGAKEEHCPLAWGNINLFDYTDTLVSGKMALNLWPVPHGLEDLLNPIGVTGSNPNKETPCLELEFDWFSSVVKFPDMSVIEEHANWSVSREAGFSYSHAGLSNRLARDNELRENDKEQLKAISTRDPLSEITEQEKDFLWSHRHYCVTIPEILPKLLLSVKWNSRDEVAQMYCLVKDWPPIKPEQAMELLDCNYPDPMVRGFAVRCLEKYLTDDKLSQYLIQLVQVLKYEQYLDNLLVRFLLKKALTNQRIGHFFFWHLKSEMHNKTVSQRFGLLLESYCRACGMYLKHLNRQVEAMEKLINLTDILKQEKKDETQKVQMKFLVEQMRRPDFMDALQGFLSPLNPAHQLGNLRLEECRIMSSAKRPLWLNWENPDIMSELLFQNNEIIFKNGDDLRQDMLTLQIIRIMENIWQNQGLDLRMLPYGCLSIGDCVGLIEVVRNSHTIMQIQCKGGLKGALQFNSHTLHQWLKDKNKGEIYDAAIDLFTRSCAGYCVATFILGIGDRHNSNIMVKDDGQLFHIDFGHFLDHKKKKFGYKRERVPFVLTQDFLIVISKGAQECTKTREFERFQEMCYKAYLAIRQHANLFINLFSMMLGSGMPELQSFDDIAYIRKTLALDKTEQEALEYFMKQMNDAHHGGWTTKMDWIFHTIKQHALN
Description: Inhibition of PI3Kalpha (unknown origin) using biotin-PIP3 as substrate preincubated for 15 mins followed by substrate addition and measured after 60 mins by fluorescence polarization assay

[5] = target: T1, Phosphatidylinositol 4,5-bisphosphate 3-kinase catalytic subunit delta isoform (Homo sapiens, UniProt O00329)
T1 sequence (O00329 whole entry): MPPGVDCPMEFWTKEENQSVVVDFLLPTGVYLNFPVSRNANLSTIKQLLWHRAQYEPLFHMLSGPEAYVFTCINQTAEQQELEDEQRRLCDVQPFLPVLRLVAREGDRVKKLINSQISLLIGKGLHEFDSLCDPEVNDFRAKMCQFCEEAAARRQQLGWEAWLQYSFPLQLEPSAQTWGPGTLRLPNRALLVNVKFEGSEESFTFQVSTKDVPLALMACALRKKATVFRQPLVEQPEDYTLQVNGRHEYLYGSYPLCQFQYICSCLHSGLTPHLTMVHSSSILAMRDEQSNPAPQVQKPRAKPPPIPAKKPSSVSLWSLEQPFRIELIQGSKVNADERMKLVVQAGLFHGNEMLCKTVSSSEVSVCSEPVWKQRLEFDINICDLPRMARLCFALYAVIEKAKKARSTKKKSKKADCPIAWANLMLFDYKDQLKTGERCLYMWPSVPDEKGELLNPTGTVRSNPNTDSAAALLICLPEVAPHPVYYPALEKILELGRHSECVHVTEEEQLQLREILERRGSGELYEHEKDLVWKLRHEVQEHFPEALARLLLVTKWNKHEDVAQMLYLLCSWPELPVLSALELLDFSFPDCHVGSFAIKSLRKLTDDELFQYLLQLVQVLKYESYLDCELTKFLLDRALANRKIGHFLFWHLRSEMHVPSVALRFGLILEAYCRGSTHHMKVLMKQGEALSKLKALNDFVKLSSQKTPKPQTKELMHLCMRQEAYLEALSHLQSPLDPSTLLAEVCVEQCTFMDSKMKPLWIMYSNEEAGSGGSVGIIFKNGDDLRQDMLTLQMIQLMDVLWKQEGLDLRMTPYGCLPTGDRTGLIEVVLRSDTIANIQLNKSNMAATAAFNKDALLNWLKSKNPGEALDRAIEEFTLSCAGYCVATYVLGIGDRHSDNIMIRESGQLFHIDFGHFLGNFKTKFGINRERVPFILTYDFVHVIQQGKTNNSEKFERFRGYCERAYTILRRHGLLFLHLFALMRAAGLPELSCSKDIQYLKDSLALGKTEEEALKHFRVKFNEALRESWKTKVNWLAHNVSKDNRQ
Description: Inhibition of PI3Kdelta (unknown origin) using biotin-PIP3 as substrate preincubated for 15 mins followed by substrate addition and measured after 60 mins by fluorescence polarization assay

Sequence of Phosphatidylinositol 4,5-bisphosphate 3-kinase catalytic subunit beta isoform (P42338 whole entry, canonical isoform): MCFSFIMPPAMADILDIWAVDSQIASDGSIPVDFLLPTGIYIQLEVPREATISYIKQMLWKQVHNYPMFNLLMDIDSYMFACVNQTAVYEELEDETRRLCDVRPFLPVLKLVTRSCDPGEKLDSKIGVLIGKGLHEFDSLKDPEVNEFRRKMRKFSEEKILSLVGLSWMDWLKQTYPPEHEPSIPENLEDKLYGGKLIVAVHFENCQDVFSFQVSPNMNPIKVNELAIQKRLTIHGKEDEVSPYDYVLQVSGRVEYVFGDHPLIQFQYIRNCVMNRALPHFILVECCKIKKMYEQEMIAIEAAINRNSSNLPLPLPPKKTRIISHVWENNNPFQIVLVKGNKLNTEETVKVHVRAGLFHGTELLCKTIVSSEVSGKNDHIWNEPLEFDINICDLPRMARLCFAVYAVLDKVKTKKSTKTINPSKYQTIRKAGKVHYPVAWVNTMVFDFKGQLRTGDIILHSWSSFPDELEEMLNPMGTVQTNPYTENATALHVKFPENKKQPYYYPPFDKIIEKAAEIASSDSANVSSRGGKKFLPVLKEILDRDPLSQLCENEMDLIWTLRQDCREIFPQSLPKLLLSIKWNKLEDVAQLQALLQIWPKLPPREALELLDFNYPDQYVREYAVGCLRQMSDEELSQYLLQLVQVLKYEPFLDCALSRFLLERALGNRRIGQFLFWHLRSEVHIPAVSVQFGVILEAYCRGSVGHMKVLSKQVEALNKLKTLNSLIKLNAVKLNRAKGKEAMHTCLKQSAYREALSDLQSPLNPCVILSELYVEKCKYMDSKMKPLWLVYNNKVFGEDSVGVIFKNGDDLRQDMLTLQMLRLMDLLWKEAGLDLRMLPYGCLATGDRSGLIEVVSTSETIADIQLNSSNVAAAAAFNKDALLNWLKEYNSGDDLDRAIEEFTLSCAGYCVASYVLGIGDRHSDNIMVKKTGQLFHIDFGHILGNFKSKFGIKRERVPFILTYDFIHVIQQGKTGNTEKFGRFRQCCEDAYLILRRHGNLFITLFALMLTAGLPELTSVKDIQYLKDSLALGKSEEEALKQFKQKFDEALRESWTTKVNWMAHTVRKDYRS

SMILES	IC50 [1] [nM]	IC50 [2] [nM]	logD [3]	IC50 [4] [nM]	IC50 [5] [nM]
CC(=O)N(C)C1CCN(Cc2cc3nc(-c4cccc5[nH]ncc45)nc(N4CCOCC4)c3s2)CC1	2000	1000	4.1	501	31.6
COCC(=O)NC1CCN(Cc2cc3nc(-c4cccc5[nH]ncc45)nc(N4CCOCC4)c3s2)CC1	3980		3.9	398	126
CC(=O)NC1CCN(Cc2cc3nc(-c4cccc5[nH]ccc45)nc(N4CCOCC4)c3s2)CC1			4	3160	79.4
CN(C1CCN(Cc2cc3nc(-c4cccc5[nH]ccc45)nc(N4CCOCC4)c3s2)CC1)S(C)(=O)=O	1260	794	5.2	1580	12.6
COCC(=O)N(C)C1CCN(Cc2cc3nc(-c4cccc5[nH]ncc45)nc(N4CCOCC4)c3s2)CC1	1580		3.8	501	25.1
CNC(=O)NC1CCN(Cc2cc3nc(-c4cccc5[nH]ccc45)nc(N4CCOCC4)c3s2)CC1	2510		3.6	3980	158
COCC(=O)NC1CCN(Cc2cc3nc(-c4cccc5[nH]ccc45)nc(N4CCOCC4)c3s2)CC1			4.3		79.4
CC(=O)NC1CCN(Cc2cc3nc(-c4cccc5[nH]ncc45)nc(N4CCOCC4)c3s2)C1 (racemic)	3980	1260	3	501	251
CNC(=O)N(C)C1CCN(Cc2cc3nc(-c4cccc5[nH]ncc45)nc(N4CCOCC4)c3s2)C1 (racemic)	1580	1580		794	63.1
CNC(=O)NC1CCN(Cc2cc3nc(-c4cccc5[nH]ccc45)nc(N4CCOCC4)c3s2)C1 (racemic)	2000	3980	3.4	3160	126
CNC(=O)NC1CCN(Cc2cc3nc(-c4cccc5[nH]ncc45)nc(N4CCOCC4)c3s2)C1 (racemic)	2510	1260	2.9	316	200
COCC(=O)NC1CCN(Cc2cc3nc(-c4cccc5[nH]ccc45)nc(N4CCOCC4)c3s2)C1 (racemic)	1000	2510	4.1	1580	100
COCC(=O)NC1CCN(Cc2cc3nc(-c4cccc5[nH]ncc45)nc(N4CCOCC4)c3s2)C1 (racemic)	3160	794	3.4	316	200
CC(=O)NC1CCN(Cc2cc3nc(-c4cccc5[nH]ccc45)nc(N4CCOCC4)c3s2)C1 (racemic)	1260	2000	3.7	3160	63.1

The remaining lines, values ahead:

IC50 [1] [nM]	IC50 [2] [nM]	logD [3]	IC50 [4] [nM]	IC50 [5] [nM]	SMILES
398	39.8	2.8	39.8	6.31	CC(=O)N(C)C1CCN(Cc2cc3nc(-c4cnc(N)nc4)nc(N4CCOCC4)c3s2)CC1
6310		3.2	631	200	CC(=O)NC1CCN(Cc2cc3nc(-c4cccc5[nH]ncc45)nc(N4CCOCC4)c3s2)CC1
2000	126	1.8	126	158	CC(=O)N[C@@H]1CCN(Cc2cc3nc(-c4cnc(N)nc4)nc(N4CCOCC4)c3s2)C1
5010	794	4.5	316	39.8	CN(C1CCN(Cc2cc3nc(-c4cccc5[nH]ncc45)nc(N4CCOCC4)c3s2)CC1)S(C)(=O)=O
398	63.1	2.4	31.6	25.1	CS(=O)(=O)NC1CCN(Cc2cc3nc(-c4cnc(N)nc4)nc(N4CCOCC4)c3s2)CC1
631	15.8	2.5	20	12.6	CC(=O)N(C)[C@H]1CCN(Cc2cc3nc(-c4cnc(N)nc4)nc(N4CCOCC4)c3s2)C1
3160		3.1	251	100	CNC(=O)NC1CCN(Cc2cc3nc(-c4cccc5[nH]ncc45)nc(N4CCOCC4)c3s2)CC1
794	63.1	2.3	50.1	39.8	COCC(=O)NC1CCN(Cc2cc3nc(-c4cnc(N)nc4)nc(N4CCOCC4)c3s2)CC1
631	1000	4.4	1260	20	CS(=O)(=O)NC1CCN(Cc2cc3nc(-c4cccc5[nH]ccc45)nc(N4CCOCC4)c3s2)CC1
398	25.1	2.5	31.6	7.94	CC(=O)N(C)[C@@H]1CCN(Cc2cc3nc(-c4cnc(N)nc4)nc(N4CCOCC4)c3s2)C1
1580	158	2.2	126	100	CC(=O)NC1CCN(Cc2cc3nc(-c4cnc(N)nc4)nc(N4CCOCC4)c3s2)CC1
631	63.1	1.9	25.1	39.8	CNC(=O)NC1CCN(Cc2cc3nc(-c4cnc(N)nc4)nc(N4CCOCC4)c3s2)CC1
3980	251	1.8	200	316	CC(=O)N[C@H]1CCN(Cc2cc3nc(-c4cnc(N)nc4)nc(N4CCOCC4)c3s2)C1
631	126	2.7	126	15.8	COCC(=O)N(C)C1CCN(Cc2cc3nc(-c4cnc(N)nc4)nc(N4CCOCC4)c3s2)CC1
1260	794	3.8	126	39.8	CS(=O)(=O)NC1CCN(Cc2cc3nc(-c4cccc5[nH]ncc45)nc(N4CCOCC4)c3s2)CC1
1000	158	1.7	63.1	158	CNC(=O)NC1CCN(Cc2cc3nc(-c4cnc(N)nc4)nc(N4CCOCC4)c3s2)C1 (racemic)
631	1580	4.3	1580	25.1	CS(=O)(=O)NC1CCN(Cc2cc3nc(-c4cccc5[nH]ccc45)nc(N4CCOCC4)c3s2)C1 (racemic)
501	79.4	1.9	31.6	79.4	CC(=O)NC1CCN(Cc2cc3nc(-c4cnc(N)nc4)nc(N4CCOCC4)c3s2)C1 (racemic)
501	50.1	2.3	39.8	79.4	COCC(=O)NC1CCN(Cc2cc3nc(-c4cnc(N)nc4)nc(N4CCOCC4)c3s2)C1 (racemic)
3160	1260	3.5	251	63.1	CS(=O)(=O)NC1CCN(Cc2cc3nc(-c4cccc5[nH]ncc45)nc(N4CCOCC4)c3s2)C1 (racemic)
